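Method: 48-hour compound exposure of cells in 96-well plates, five concentrations, linear interpolation of endpoints. GI50 marks 50% less growth.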 Active and inactive are the calls of the source. Cut-off read from the data, not from the text of the source: active = GI50 up to about 1.1 µM and inactive = higher.
Tests used:
Test in all cases: NCI-60 cell line screen, 48 h
SK-MEL-2 = system: SK-MEL-2
OVCAR-4 = system: OVCAR-4
HL-60 = system: HL-60
LOX IMVI = system: LOX IMVI
NCI/ADR-RES = system: NCI/ADR-RES
CCRF-CEM = system: CCRF-CEM
TK-10 = system: TK-10
SW-620 = system: SW-620
HOP-62 = system: HOP-62
RPMI-8226 = system: RPMI-8226
UO-31 = system: UO-31
RXF 393 = system: RXF 393
U-251 = system: U-251
SN12C = system: SN12C
OVCAR-3 = system: OVCAR-3
BT-549 = system: BT-549
SF-539 = system: SF-539
MDA-MB-435 = system: MDA-MB-435
NCI-H460 = system: NCI-H460
T47D = system: T47D

O=C1Nc2ccccc2/C1=C1/Nc2ccccc2/C1=N\OCCNCC(O)C(O)C(O)C(O)CO (stereo not given)
GI50 (SK-MEL-2): 7.91 µM (inactive) | GI50 (OVCAR-4): 31.5 µM (inactive) | GI50 (HL-60): 5.5 µM (inactive) | GI50 (LOX IMVI): 8.53 µM (inactive) | GI50 (NCI/ADR-RES): > 50 µM (inactive) | GI50 (CCRF-CEM): 10.5 µM (inactive) | GI50 (TK-10): 35.8 µM (inactive) | GI50 (SW-620): 15.9 µM (inactive) | GI50 (HOP-62): 11.7 µM (inactive) | GI50 (RPMI-8226): 19.1 µM (inactive) | GI50 (UO-31): > 50 µM (inactive) | GI50 (RXF 393): 12.5 µM (inactive) | GI50 (U-251): 12.9 µM (inactive) | GI50 (SN12C): 15.2 µM (inactive) | GI50 (OVCAR-3): 11.6 µM (inactive) | GI50 (BT-549): 13.9 µM (inactive) | GI50 (SF-539): 14.1 µM (inactive) | GI50 (MDA-MB-435): 9.86 µM (inactive) | GI50 (NCI-H460): 18.1 µM (inactive) | GI50 (T47D): 6.7 µM (inactive)

COC1=CC2(C=CC1=O)CCNC1=C2C(=O)c2nc[nH]c2C1=O (stereo not given)
GI50 (SK-MEL-2): > 100 µM (inactive) | GI50 (OVCAR-4): > 100 µM (inactive) | GI50 (HL-60): > 100 µM (inactive) | GI50 (LOX IMVI): > 100 µM (inactive) | GI50 (NCI/ADR-RES): > 100 µM (inactive) | GI50 (CCRF-CEM): > 100 µM (inactive) | GI50 (TK-10): > 100 µM (inactive) | GI50 (SW-620): > 100 µM (inactive) | GI50 (HOP-62): > 100 µM (inactive) | GI50 (RPMI-8226): > 100 µM (inactive) | GI50 (UO-31): > 100 µM (inactive) | GI50 (RXF 393): > 100 µM (inactive) | GI50 (U-251): > 100 µM (inactive) | GI50 (SN12C): > 100 µM (inactive) | GI50 (OVCAR-3): 41.8 µM (inactive) | GI50 (BT-549): > 100 µM (inactive) | GI50 (SF-539): > 100 µM (inactive) | GI50 (MDA-MB-435): > 100 µM (inactive) | GI50 (NCI-H460): > 100 µM (inactive) | GI50 (T47D): > 100 µM (inactive)

CC(C)(C)CNCCO
GI50 (SK-MEL-2): > 100 µM (inactive) | GI50 (OVCAR-4): > 100 µM (inactive) | GI50 (HL-60): > 100 µM (inactive) | GI50 (LOX IMVI): > 100 µM (inactive) | GI50 (NCI/ADR-RES): > 100 µM (inactive) | GI50 (CCRF-CEM): > 100 µM (inactive) | GI50 (TK-10): > 100 µM (inactive) | GI50 (SW-620): > 100 µM (inactive) | GI50 (HOP-62): > 100 µM (inactive) | GI50 (RPMI-8226): > 100 µM (inactive) | GI50 (UO-31): > 100 µM (inactive) | GI50 (RXF 393): > 100 µM (inactive) | GI50 (U-251): > 100 µM (inactive) | GI50 (SN12C): > 100 µM (inactive) | GI50 (OVCAR-3): > 100 µM (inactive) | GI50 (BT-549): > 100 µM (inactive) | GI50 (SF-539): > 100 µM (inactive) | GI50 (MDA-MB-435): > 100 µM (inactive) | GI50 (NCI-H460): > 100 µM (inactive) | GI50 (T47D): > 100 µM (inactive)

CN1CCCC(OC(=O)c2cc3cc(CCl)ccc3oc2=O)C1 (stereo not given)
GI50 (SK-MEL-2): 17.6 µM (inactive) | GI50 (OVCAR-4): 20.3 µM (inactive) | GI50 (HL-60): 2.07 µM (inactive) | GI50 (LOX IMVI): 17 µM (inactive) | GI50 (NCI/ADR-RES): 27.9 µM (inactive) | GI50 (CCRF-CEM): 19.1 µM (inactive) | GI50 (TK-10): 18.9 µM (inactive) | GI50 (SW-620): 22.7 µM (inactive) | GI50 (HOP-62): 25.8 µM (inactive) | GI50 (RPMI-8226): 29.4 µM (inactive) | GI50 (UO-31): 15.8 µM (inactive) | GI50 (RXF 393): 23.7 µM (inactive) | GI50 (U-251): 14.9 µM (inactive) | GI50 (SN12C): 20.9 µM (inactive) | GI50 (OVCAR-3): 14.2 µM (inactive) | GI50 (BT-549): 21 µM (inactive) | GI50 (SF-539): 27 µM (inactive) | GI50 (MDA-MB-435): 18.9 µM (inactive) | GI50 (NCI-H460): 19.1 µM (inactive) | GI50 (T47D): 32.7 µM (inactive)

O=C1c2ccccc2-c2c1c1ccccc1c(=O)n2-c1ccccc1
GI50 (SK-MEL-2): 20.4 µM (inactive) | GI50 (OVCAR-4): 2.86 µM (inactive) | GI50 (HL-60): > 33 µM (inactive) | GI50 (LOX IMVI): 68.5 µM (inactive) | GI50 (NCI/ADR-RES): 5.48 µM (inactive) | GI50 (CCRF-CEM): > 100 µM (inactive) | GI50 (TK-10): 11.7 µM (inactive) | GI50 (SW-620): 35.4 µM (inactive) | GI50 (HOP-62): 4.26 µM (inactive) | GI50 (RPMI-8226): > 100 µM (inactive) | GI50 (UO-31): 5.64 µM (inactive) | GI50 (RXF 393): 4.59 µM (inactive) | GI50 (U-251): 9.18 µM (inactive) | GI50 (SN12C): 16.4 µM (inactive) | GI50 (OVCAR-3): 14.4 µM (inactive) | GI50 (BT-549): 14.4 µM (inactive) | GI50 (SF-539): 4.91 µM (inactive) | GI50 (MDA-MB-435): > 100 µM (inactive) | GI50 (NCI-H460): 6.56 µM (inactive) | GI50 (T47D): 15.8 µM (inactive)

CC(=O)NC(CCCCN(Cc1ccccc1)C(=O)N(CCCl)N=O)C(=O)NCc1ccccc1 (stereo not given)
GI50 (SK-MEL-2): 44.8 µM (inactive) | GI50 (OVCAR-4): 68.1 µM (inactive) | GI50 (HL-60): 12.4 µM (inactive) | GI50 (LOX IMVI): 22.2 µM (inactive) | GI50 (NCI/ADR-RES): 14.5 µM (inactive) | GI50 (CCRF-CEM): 17.8 µM (inactive) | GI50 (TK-10): 44.8 µM (inactive) | GI50 (SW-620): 18.5 µM (inactive) | GI50 (HOP-62): 17 µM (inactive) | GI50 (RPMI-8226): 41.7 µM (inactive) | GI50 (UO-31): 34.4 µM (inactive) | GI50 (RXF 393): 14.7 µM (inactive) | GI50 (U-251): 11.6 µM (inactive) | GI50 (SN12C): 34.8 µM (inactive) | GI50 (OVCAR-3): 60.8 µM (inactive) | GI50 (BT-549): 21.3 µM (inactive) | GI50 (SF-539): 3.38 µM (inactive) | GI50 (MDA-MB-435): 35.1 µM (inactive) | GI50 (NCI-H460): 2.22 µM (inactive) | GI50 (T47D): 14.5 µM (inactive)

CC[C@@]1(O)C(=O)OCc2c1cc1n(c2=O)Cc2c-1nc1ccccc1c2/C=N\NC(=O)C(N)CS (stereo not given in full)
GI50 (SK-MEL-2): 46.3 µM (inactive) | GI50 (OVCAR-4): 53.2 µM (inactive) | GI50 (HL-60): 0.346 µM (active) | GI50 (LOX IMVI): 0.454 µM (active) | GI50 (NCI/ADR-RES): 1.71 µM (inactive) | GI50 (CCRF-CEM): 0.0446 µM (active) | GI50 (TK-10): > 84.9 µM (inactive) | GI50 (SW-620): 1.37 µM (inactive) | GI50 (HOP-62): 0.295 µM (active) | GI50 (RPMI-8226): 1.32 µM (inactive) | GI50 (UO-31): 0.989 µM (active) | GI50 (RXF 393): 1.8 µM (inactive) | GI50 (U-251): 0.281 µM (active) | GI50 (SN12C): 0.116 µM (active) | GI50 (OVCAR-3): 13.2 µM (inactive) | GI50 (BT-549): 10.8 µM (inactive) | GI50 (SF-539): 0.249 µM (active) | GI50 (MDA-MB-435): 5.36 µM (inactive) | GI50 (NCI-H460): 0.363 µM (active) | GI50 (T47D): 0.1 µM (active)

CC1(C)C2CCC1(CS(=O)(=O)Nc1ccccc1)C(=O)C2 (stereo not given)
GI50 (SK-MEL-2): > 100 µM (inactive) | GI50 (OVCAR-4): > 100 µM (inactive) | GI50 (HL-60): > 100 µM (inactive) | GI50 (LOX IMVI): > 100 µM (inactive) | GI50 (NCI/ADR-RES): > 100 µM (inactive) | GI50 (CCRF-CEM): 11.7 µM (inactive) | GI50 (TK-10): > 100 µM (inactive) | GI50 (SW-620): > 100 µM (inactive) | GI50 (HOP-62): > 100 µM (inactive) | GI50 (RPMI-8226): > 100 µM (inactive) | GI50 (UO-31): 75.9 µM (inactive) | GI50 (RXF 393): > 100 µM (inactive) | GI50 (U-251): > 100 µM (inactive) | GI50 (SN12C): > 100 µM (inactive) | GI50 (OVCAR-3): > 100 µM (inactive) | GI50 (BT-549): > 100 µM (inactive) | GI50 (SF-539): > 100 µM (inactive) | GI50 (MDA-MB-435): > 100 µM (inactive) | GI50 (NCI-H460): > 100 µM (inactive) | GI50 (T47D): > 100 µM (inactive)

From ChEMBL document CHEMBL1201862, “PubChem BioAssay data set” (2004)
